Measurements reported in patent publication US20020028188A1, “Method of preparing particularly skin-compatible cosmetic or dermatological cleansing preparations” (priority 1999, published 2002).

Test system: surface of the skin
Assay: adsorption of lauryl ether sulfate on the skin (simulated washing operation, forearm, desorption, ion-pair chromatography)
Type: in vivo, human
Conditions: significance: Yes
Description: The method which we have developed for determining the adsorption of lauryl ether sulfate on the skin simulates a washing operation as occurs, for example, during daily showering: Firstly, the inner sides of the forearms are divided into a number of test areas using insulating tape. The area to be treated is then wetted with approximately 50 ml of mains water (T=38±1° C.). The lauryl ether sulfate is then applied. Throughout the application period of 45 s, the test subject distributes the lauryl ether sulfate over the area using 2 fingers in uniform circular movements. At the end of the application period, the test area is rinsed with approximately 950 ml of mains water (T=38±1° C.) and carefully patted dry using a clean cellulose cloth. For the desorption, a plastic ring with an internal diameter of 25 mm is pressed firmly onto the inner side of the test subject's forearm. 1000 μl of a 1% Triton X-100 solution are then introduced into the ring. The tip of a round Teflon-coated spatula is then used to scrape the skin uniformly for 1 min. This leads to suspension of corneocytes. To work up the samples for analysis, the samples are centrifuged and 800 μl of the supernatant are drawn off. The supernatant is analyzed with regard to its lauryl ether sulfate content using ion-pair chromatography. The effectiveness of the desorption method described is 79%, i.e. 79% of the amount of lauryl ether sulfate actually present on the skin are included.

[1] = cosurfactant concentration 3% added to a lauryl ether sulfate solution

Molecule	Effect on the adsorbed amount of lauryl ether sulfate (Reduction by) [1]	other results
CCCCCCCCCCO[C@@H]1O[C@H](CO)[C@@H](O)[C@H](O)[C@H]1O [Decyl glucoside]	–	Effect on the adsorbed amount of lauryl ether sulfate (Reduction by) (cosurfactant concentration 5% added to a lauryl ether sulfate solution): Reduction by 29%
CCCCCCCCCCCC(=O)O [Lauric acid]	–	Effect on the adsorbed amount of lauryl ether sulfate (Reduction by) (cosurfactant concentration 1%, pH9, added to a lauryl ether sulfate solution): Reduction by 15%
Cocamidopropylbetaine	Reduction by 31%	–
Disodium laureth sulfosuccinate	Reduction by 28%	–
Sodium cocoamphoacetate	Reduction by 27%	–
